Measurements from article PMC8624133, “10th Trends in Medical Mycology Held on 8 to 11 October 2021, Aberdeen, Scotland, Organized by the European Confederation of Medical Mycology (ECMM)” (Journal of Fungi, 2021).
Converted amounts (≈) assume the structure as drawn. Read-outs that look alike come from different tables or passages of the source.

Tests used:
C. auris [1] = assay: Postantifungal effect (PAFE); type: cell-based, Candida auris; conditions: 2 and 4 mg/L, 1 h exposure, six blood isolates
Description: Materials & Methods: PAFE experiments were performed in microtitre plates, with six C. auris clinical blood isolates (Hospital La Fe, Valencia, Spain). […] Cell pellets were re-suspended in RPMI medium and added back to the microtitre plates. Sample for viable counts were taken at 0, 2, 4, 6, 8, 24 and 48 h after re-suspension, plated in triplicate onto Sabouraud dextrose agar and incubated for 24–48 h at 37 °C. Experiments were performed in duplicate for each isolate on different days. PAFE was calculated as follows: PAFE = T − C. Where “T” is the time needed by the treated fungal cultures to growth 1 log after drug removal and “C” is the time needed by the control group to growth 1 log after last washout. Additionally, maximum log reductions of time-kill and PAFE experiments were compared and used to calculate a PAFE/time-kill index to determine the percentage of cell killing that could be attributed to the PAFE.

[2] = test system: Candida sp. and other yeast isolates, planktonic; assay: MIC of catheter yeast isolates, planktonic form; type: cell-based; conditions: read-out: Minimum Inhibitory Concentrations (MIC)
C. auris isolates = assay: AmB Etest; type: cell-based, Candida auris; conditions: for MIC: Candidozyma auris
Description: Methods: A total of 313 C. auris isolates representing five geographic clades (I—South Asian; II—East Asian; III—South African; IV—South American; V—Iranian) were investigated in this study. Antifungal susceptibility testing (AFST) with AmB was performed with Etest according to the manufacturer instructions. […] Ergosterol biosynthesis pathway genes ERG2 (C-8 sterol isomerase), ERG3 (C-5 sterol desaturase), ERG6 (sterol 24-C-methyltransferase), and ERG11 (lanosterol 14-α-demethylase) were amplified and sequenced. […] AmB susceptibility was then determined for the transformed strain.

C. auris [3] = assay: EUCAST EDef 7.3.1 MIC and checkerboard microdilution; type: cell-based, Candida auris
Description: Methods: We studied 22 C. auris isolates obtained from different clinical samples from the Hospital La Fe, Valencia, Spain (eight from blood culture, seven from oropharynx and seven from urine cultures). Candida parapsilosis ATCC 22019 and Candida krusei ATCC 6258 were used as quality controls. The minimum inhibitory concentration (MIC) was determined according to the European Committee on Antibiotic Susceptibility Testing (EUCAST) EDef 7.3.1 document. The interaction between citral and the rest of antifungal drugs was assessed by a checkerboard microdilution method. […] The in vitro interaction of the drug combinations was interpreted in terms of the fractional inhibitory concentration index (FICI) as follows: FICI < 1, synergistic; FICI equal to 1, additive; and FICI > 1, indifferent or antagonistic.

[4] = test system: clinical Trichophyton spp. isolates; assay: Checkerboard microdilution based on EUCAST; type: cell-based; conditions: for MIC: Trichophyton, read-out: geometric mean MIC, drug alone
Description: Materials & Methods: The combination has been tested against 9 terbinafine-susceptible and 7 terbinafine-resistant clinical Trichophyton spp. isolates from India. In vitro interactions were evaluated by a microdilution checkerboard technique based on the EUCAST reference method for antifungal susceptibility testing. The mode of interaction between terbinafine and itraconazole was determined by the fractional inhibitory concentration index (FICI). The FICI was interpreted as FICI ≤ 0.5 = synergy, FICI > 0.5–4 = no interaction, and FICI > 4.0 = antagonism.

A. flavus complex = conditions: n = 6, EUCAST clinical breakpoints
Candida non-albicans = assay: In vitro fluconazole susceptibility, neonatal invasive candidiasis; type: cell-based
C. albicans = assay: as above; type: cell-based, Candida albicans
C. parapsilosis = assay: ARIA surveillance, CLSI M27 broth microdilution; type: cell-based, Candida parapsilosis
[5] = Voriconazole level monitoring with flucloxacillin co-administration; type: in vivo, human
Excerpt: Methods: Synoptic description of a significant interaction in 2 critically ill patients and analysis of interaction screening in validated data bases.

F. solani (FS) biofilms = assay: Mature biofilm damage, XTT metabolic reduction assay; conditions: Fusarium solani, 24 h, read-out: BF MIC50
[6] = Universal voriconazole prophylaxis in lung transplant recipients, retrospective; type: in vivo, human
Description: Materials & Methods: Retrospective study of all adult lung transplant recipients at Copenhagen University Hospital during 2010 to 2019. […] Failure to complete prophylaxis was defined as recieving <9 of the intented 12 weeks of prophylaxis. Liver and kidney toxicity was graded according to Common Terminology Criteria for Adverse Events (CTCAE) criteria (grades 0–4 according to degree of elevation). Grade ≥2 adverse events were classified as high. Lung biopsies were evaluated for acute rejection (grade ≥A2). Calcineurin-inhibitor (CNI) plasma-concentrations were evaluated for off-target episodes. High and low episodes were defined as ≥2 concecutive samples 20% above or below target range limits, respectively. […] Acute rejections were classified as related to low CNI if they occurred 0–30 days from low CNI. Grade ≥2 kidney toxicity was considered related to high CNI if it occurred between two days prior to high CNI to 7 days after.

Asp. fumigatus = assay: Triazole resistance agar screening, four-well plate; conditions: RPMI agar, 1 µg/mL, 7 isolates
Description: All the isolates were identified phenotypically. […] Fungal spores were suspended in normal saline (0.85%) and adjusted to 0.5 McFarland and 50 μL was plated in each well. […] Plates were incubated at 35–37 °C for 72 h in ambient air. The presence or absence of growth was observed visually at 24 h, 48 h, and 72 h.

[7] = test system: A. fumigatus isolates from BAL; assay: Sensititre YeastOne Y010, read according to CLSI (2020); type: cell-based, Aspergillus fumigatus
Description: Materials & Methods: Retrospective evaluation of antifungal susceptibility for A. fumigatus isolates from bronchoalveolar lavage (BAL) fluid in pts with invasive pulmonary aspergillosis was performed. All isolates were obtained from hematological pts admitted to National Research Center for Hematology (Moscow) between 2016 and 2020. All A. fumigatus species were identified by morphology, matrix-assisted laser desorption ionization time of flight mass spectrometry. The azole-resistant strains were identified by ITS, β-tubulin, calmodulin and actine gene sequencing. […] The MIC of antifungal agents were read according to the CLSI (2020). Cyp51A was sequenced to establish the most common resistance mechanisms embedded in azole-resistant A. fumigatus.

[8] = 7 terbinafine-resistant isolates
[9] = 9 terbinafine-susceptible isolates

C[C@@H]1[C@H](O)[C@@H](C)/C=C/C=C/C=C/C=C/C=C/C=C/C=C/[C@H](O[C@@H]2O[C@H](C)[C@@H](O)[C@H](N)[C@@H]2O)C[C@@H]2O[C@](O)(C[C@@H](O)C[C@@H](O)[C@H](O)CC[C@@H](O)C[C@@H](O)CC(=O)O[C@H]1C)C[C@H](O)[C@H]2C(=O)O [amphotericin B]
PAFE (C. auris [1]): 3.5 to 6.5 h
MIC [2]: 30 to 1000 µg/mL
isolates with AmB MIC values ≥2 mg/L (C. auris isolates; 19 of 313 isolates): 6.1%
MIC (C. auris isolates; read-out: AmB MIC, South African isolate SA18, ERG6 missing base pairs 52–543): 6 µg/mL (≈ 6.49 µM)
MIC (C. auris isolates; read-out: AmB MIC, susceptible strain after replacement with ERG6 of SA18): > 32 µg/mL
MIC (C. auris isolates; read-out: AmB MIC, susceptible strain with wild-type ERG6): 0.5 µg/mL (≈ 0.541 µM)
MIC of amphotericin B in combination with citral (C. auris [3]): 0.016 µg/mL
MIC (C. auris [3]; Candidozyma auris, 22 clinical isolates): 0.25 µg/mL

CCC(C)n1ncn(-c2ccc(N3CCN(c4ccc(OCC5COC(Cn6cncn6)(c6ccc(Cl)cc6Cl)O5)cc4)CC3)cc2)c1=O (stereo not shown) [itraconazole]
MIC range, drug alone [4, 8]: 0.0625 to 0.5 µg/mL
MIC range, drug alone [4, 9]: 0.125 to 0.5 µg/mL
MIC [4, 8]: 0.19 µg/mL
MIC [4, 9]: 0.3 µg/mL
isolates resistant (A. flavus complex): 17%

OC(Cn1cncn1)(Cn1cncn1)c1ccc(F)cc1F [fluconazole]
dose-dependent susceptible pathogens (Candida non-albicans): 6%
in vitro resistant pathogens (Candida non-albicans): 6%
dose-dependent susceptible pathogens (C. albicans): 0%
in vitro resistant pathogens (C. albicans): 7%
susceptibility (C. parapsilosis; Italy): 52.4%
susceptibility (C. parapsilosis; Turkey): 76.2%
overall susceptibility (C. parapsilosis; all countries): 88.5%
susceptibility (C. parapsilosis; all countries except Italy and Turkey): 100%

C[C@@H](c1ncncc1F)[C@](O)(Cn1cncn1)c1ccc(F)cc1F [voriconazole]
voriconazole level ([5]; Case 1, 2 days after flucloxacillin interruption, 8 mg/kg bid): < 0.2 µg/mL
voriconazole level ([5]; Case 1, day 10 of combination with high dose flucloxacillin, 4 mg/kg bid): < 0.2 µg/mL
voriconazole level ([5]; Case 1, subsequently after 3 days): 3 µg/mL
voriconazole level ([5]; Case 2, after flucloxacillin stop and dose increase to 6 mg/kg bid): 4.2 µg/mL
voriconazole level ([5]; Case 2, before flucloxacillin): 3.5 µg/mL
voriconazole level ([5]; Case 2, during high dose flucloxacillin, two levels): < 0.5 µg/mL
voriconazole level ([5]; Case 2, further increase, toxic level): 15.1 µg/mL
voriconazole level ([5]; Case 2, intravenous maintenance 4 mg/kg bid): 3.2 µg/mL
MIC50 (F. solani (FS) biofilms): > 256 µg/mL
low CNI plasma-concentration episode related to discontinuation of voriconazole ([6]; patients of the universal prophylaxis period): 45%
failed to complete prophylaxis ([6]; receiving <9 of the intended 12 weeks, 183 patients on voriconazole prophylaxis): 62%
failure to complete prophylaxis due to hepatic toxicity ([6]; share of the 114 patients who failed to complete): 72%
isolates with growth only in voriconazole well, n (%) (Asp. fumigatus; 48 h): 0
isolates with growth only in voriconazole well, n (%) (Asp. fumigatus; 72 h): 3 (42.85)
isolates with elevated MIC ([7]; 2 of 35): 5.7%
MIC ([7]; Aspergillus fumigatus, BAL, read-out: elevated minimum inhibitory concentrations (MIC)): > 8 µg/mL
